From patent US4755594A, “N^6 -substituted adenosines” (Warner-Lambert Company, priority 1986, dated 1988)

How the values were obtained:
[1] = Conditioned shock avoidance (SIDR), antipsychotic; type: in vivo, male Long-Evans rats; details: Rattus norvegicus; read-out: ED50 in the SIDR protocol
Procedure: (§1) Representative compounds of the invention (identified in the Examples) were also tested for antipsychotic activity according to the following protocol (SIDR or SIDSM). The noted compound has the indicated ED50 values (mg/kg) and is considered active as an antipsychotic agent in the test procedure.
(§2) Mature male Long-Evans rats (SIDR) or squirrel-monkeys (SIDSM) are conditioned to push a lever in order to avoid a painful electric footshock. If the animals fails to push the lever, he receives a shock every ten seconds until the lever is pushed. Shocks can be terminated by pushing the lever. Thereafter, as long as the lever is pushed at least once every 20 seconds, there will be no shock.
(§3) Each animal acts as its own control; one weekly session is used to establish baseline behavior and another session later in the week is used as a drug session. Once patterns of avoidance are established, the effects of standard and unknown compounds are studied.

[2] = Conditioned shock avoidance (SIDSM), antipsychotic; type: in vivo, squirrel-monkeys; details: Primates; squirrel-monkey; read-out: ED50 in the SIDSM protocol
Procedure: as §1, §2, §3

OC[C@H]1O[C@@H](n2cnc3c(NCC4(c5ccccc5)CC4)ncnc32)[C@H](O)[C@@H]1O [Example 1, N6-((1-Phenylcyclopropyl)methyl)adenosine]
ED50 [1]: 0.55 mg/kg | ED50 [2]: 0.52 mg/kg
